{"source": "patent US11110070B2", "about": "(priority 2015, dated 2021)", "key": {"129S6/SvEvTac mice [1]": {"test_system": "129S6/SvEvTac mice", "experiment": "Open field (OF) after reinstatement", "assay_type": "in vivo", "experimental": "OF protocol was administered as previously described (Richardson-Jones et al., 2010)."}, "129S6/SvEvTac mice [2]": {"test_system": "129S6/SvEvTac mice", "experiment": "3-shock CFC, extinction and reinstatement paradigm", "assay_type": "in vivo", "experimental": "A single injection of saline (0.9% NaCl) far ketamine (30 mg kg^−1) (Ketaset III, Ketamine HCl injection, Fort Dodge Animal Health, Forth Dodge, Iowa) was administered once during the course of each experiment.\nA 3-shock CFC paradigm was administered as previously described (Drew et al., 2010; Denny et al., 2014). Mice were placed in the conditioning chamber and received 3 shocks 180, 240, and 300 s later (2 s, 0.75 mA) and were removed 15 s following the last shock. All sessions were scored for freezing using FreezeView2http://actimetrics.com/downloads/freezeframe/).\nExtinction began 4 days after the initial 3-shock CFC procedure, or 4 days after the reinstatement procedure. Each group of mice was subjected to 2 extinction trials per day. Each extinction trial lasted 30 min, with an intertrial interval of at least 2 h. For each extinction trial, mice were placed in the same box used for CFC without receiving foot shocks. All trials were scored for freezing. The freezing presented throughout the text represents averaged freezing behavior for the first 3 min of each extinction trial.\nReinstatement took place in the same Coulbourn fear conditioning box, but with altered cues. A 1-shock CFC paradigm was administered as previously described (Drew et al., 2010; Denny et al., 2012; Denny et al., 2014), with the exception of two experiments in which the mice were administered 3 shocks."}, "129S6/SvEvTac mice [3]": {"test_system": "129S6/SvEvTac mice", "experiment": "Forced swim test (FST) in social defeat (SD) model", "assay_type": "in vivo", "experimental": "Experiment 1 (Pre-ketamine in social defeat (SD)): At 8 weeks of age, a single injection of saline (0.9% NaCl) or ketamine (K) (10, 30, or 90 mg kg^−1) (Ketaset III, Ketamine HCl, Fort Dodge Animal Health, Forth Dodge, Iowa) was administered. Ketamine was prepared in physiological saline and all injections were administered intraperitoneally (i.p.) in volumes of 0.1 cc per […]. […] At 9 weeks of age, 1 week following this injection, SD was started.\n24 h after the last bout of SD, a single injection of saline or ketamine (30 mg kg^−1) was administered (mice were 11 weeks old). The forced swim test (PST) was administered 2 h following the injection.\nExperiment 3 (Pre-fluoxetine in SD): At 6 weeks of age, fluoxetine hydrochloride (Fix) (BioTrend Chemicals AG, B6197) was administered in the drinking water (18 mg kg^−1/day) for 3 weeks before the start of SD. Starting at 9 weeks of age, SD was then administered for 2 weeks without vehicle or Flx in the drinking water.\nAdult aggressor CD-1 male mice were single-housed in Macrolon® polycarbonate resin cages (15.25 in×7.8 in×9.5 in) (Animal Care Systems, Inc., Centennial, Colo.). Male 129S6/SvEvTac mice (9 weeks of age) were subsequently placed into the resident. CD-1 mouse's cage. Three antagonistic encounters were allowed between the CD-1 mouse and the intruder. Each of these encounters typically lasted less than 5 min. Following the encounters, mice were separated by a polished stainless steel cage divider (Animal Care Systems, Inc., Centennial, Colo., P/N C79171), which allowed for olfactory and auditory communication, but limited visual or tactile contact. The partition was removed daily for 2 weeks and 3 antagonistic encounters were allowed between the mice each day. This procedure consistently yielded a submissive phenotype in the experimental intruder mice. Control (Ctrl) mice were group housed 4 to 5 per cage in Macrolon® polycarbonate resin cages without dividers.\nThe FST was administered as previously described (A11). Briefly, mice were placed into clear plastic buckets 20 cm in diameter and 23 cm deep filled ⅔ of the way with 22° C. water. Mice were videotaped, from the side for 6 min and were exposed to the swim test on 2 consecutive days. For the SI) experiments, scoring was performed using an automated Viewpoint Videotrack software package (http://www.viewpoint.fr/en/a/anxiety-and-depression). For the CORT experiments, automated scoring was done using the automated X'PERT EST software suite (Bioseb, Vitrolles, France). The dependent variable was immobility."}, "patients with MDD": {"test_system": "patients with MDD", "details": "cited from earlier work"}, "[4]": {"details": "ketamine 1 week prior to 3-shock reinstatement"}, "[5]": {"details": "ketamine 1 week before CFC, vs saline"}}, "note": "Entries after “also recorded” stand apart in the source; their conditions may differ.", "data": [{"smiles": "CNC1(c2ccccc2Cl)CCCCC1=O", "note": "(racemic) [ketamine, (RS)-2-(2-chlorophenyl)-2-(methylamino)cyclohexanone]", "values": [{"measurement": "number of rearing bouts in the OF", "setting": "129S6/SvEvTac mice [1]; ketamine 1 week prior to 1-shock reinstatement, vs saline", "value": "higher number of rearing bouts; also recorded: increased number of rearing bouts"}, {"measurement": "number of rearing bouts in the OF", "setting": "129S6/SvEvTac mice [1]; [4]", "value": "comparable number of rearing bouts"}, {"measurement": "freezing during 3-shock CFC training", "setting": "129S6/SvEvTac mice [2]; ketamine 30 mg kg^−1 1 week before CFC, vs saline", "value": "comparable levels of freezing"}, {"measurement": "fear response (freezing) during CFC training", "setting": "129S6/SvEvTac mice [2]; ketamine 1 month before CFC", "value": "did not result in a decreased fear response"}, {"measurement": "freezing behavior during extinction", "setting": "129S6/SvEvTac mice [2]; ketamine 1 month before CFC", "value": "did not alter freezing behavior during extinction"}, {"measurement": "fear, first trial of extinction vs first trial of re-extinction (E1 vs. E9)", "setting": "129S6/SvEvTac mice [2]; [5]", "value": "significantly decreased levels of fear"}, {"measurement": "freezing during the first extinction exposure", "setting": "129S6/SvEvTac mice [2]; [5]", "value": "significantly less freezing behavior"}, {"measurement": "fear expression during extinction training", "setting": "129S6/SvEvTac mice [2]; ketamine 1 week following CFC, 1 week prior to extinction", "value": "did not alter fear expression during extinction training; also recorded: equal levels of freezing behavior during all extinction trials"}, {"measurement": "subsequent fear expression (reinstatement, secondary extinction)", "setting": "129S6/SvEvTac mice [2]; ketamine 1 week prior to 1-shock reinstatement (24 h after the last extinction trial)", "value": "did not alter subsequent fear expression; also recorded: equal levels of freezing behavior during reinstatement and during secondary extinction trials"}, {"measurement": "fear expression (reinstatement, secondary extinction)", "setting": "129S6/SvEvTac mice [2]; [4]", "value": "did not alter fear expression; also recorded: comparable levels of fear behavior"}, {"measurement": "fear expression during the first re-exposure", "setting": "129S6/SvEvTac mice [2]; ketamine 1 h after 3-shock reinstatement", "value": "buffered fear expression during the first re-exposure"}, {"measurement": "freezing throughout secondary extinction", "setting": "129S6/SvEvTac mice [2]; ketamine 1 h after 3-shock reinstatement, vs saline", "value": "transiently decreased freezing throughout extinction; also recorded: decreased fear"}, {"measurement": "freezing during extinction", "setting": "129S6/SvEvTac mice [2]; ketamine 1 h before CFC", "value": "froze comparably during extinction; also recorded: equal levels of freezing behavior during almost all extinction trials"}, {"measurement": "subsequent fear expression (secondary extinction trials)", "setting": "129S6/SvEvTac mice [2]; ketamine 1 h following 1-shock reinstatement", "value": "did not alter subsequent fear expression; also recorded: comparable levels of fear behavior during secondary extinction trials"}, {"measurement": "fear expression during extinction", "setting": "129S6/SvEvTac mice [2]; ketamine 1 h following 3-shock CFC training", "value": "did not alter fear expression during extinction; also recorded: equal levels of freezing behavior during all extinction trials"}, {"measurement": "fear expression during extinction training", "setting": "129S6/SvEvTac mice [2]; ketamine 1 h prior to extinction", "value": "did not alter fear expression during extinction training; also recorded: equal levels of freezing behavior during all extinction trials"}, {"measurement": "freezing behavior during extinction", "setting": "129S6/SvEvTac mice [2]; ketamine 24 h before CFC", "value": "did not alter"}, {"measurement": "subsequent fear expression (secondary extinction trials)", "setting": "129S6/SvEvTac mice [2]; ketamine 24 h following 3-shock reinstatement", "value": "did not alter subsequent fear expression; also recorded: comparable levels of freezing behavior"}, {"measurement": "immobility time, day 2 of FST", "setting": "129S6/SvEvTac mice [3]; Ctrl (group housed) mice, ketamine 30 mg kg^−1 single i.p. injection, vs Ctrl-Sal", "value": "equal levels of immobility time; also recorded: did not differ from each other"}, {"measurement": "immobility time, day 2 of FST", "setting": "129S6/SvEvTac mice [3]; Ctrl mice, ketamine 30 mg kg^−1 in the post-SD design", "value": "did not display different immobility time"}, {"measurement": "immobility time in FST", "setting": "129S6/SvEvTac mice [3]; SD mice, ketamine 10 mg kg^−1 before SD, vs SD-Sal", "value": "did not differ in immobility time"}, {"measurement": "average immobility time for minutes 3 to 6 of FST", "setting": "129S6/SvEvTac mice [3]; SD mice, ketamine 30 mg kg^−1 before SD, vs SD-Sal", "value": "less than the SD-Sal mice; also recorded: decreased immobility"}, {"measurement": "immobility time, day 2 of FST", "setting": "129S6/SvEvTac mice [3]; SD mice, ketamine 30 mg kg^−1 single injection 1 week before 2 weeks of SD, vs SD-Sal", "value": "significantly decreased immobility time; also recorded: significantly less immobility time"}, {"measurement": "immobility time in FST", "setting": "129S6/SvEvTac mice [3]; SD mice, ketamine 90 mg kg^−1 before SD, vs SD-Sal", "value": "did not differ in immobility time"}, {"measurement": "persistence of ketamine-induced resilience post-injection", "setting": "129S6/SvEvTac mice [3]; SD model", "value": "at least 3 weeks"}, {"measurement": "dose found to be effective in the SD paradigm", "setting": "129S6/SvEvTac mice [3]; doses tested 10, 30, 90 mg kg^−1", "value": 30, "unit": "mg/kg"}, {"measurement": "immobility time, minutes 3 to 6 averaged", "setting": "129S6/SvEvTac mice [3]; ketamine given after SD", "value": "did not decrease immobility time"}, {"measurement": "duration of sustained effects following the infusion", "setting": "patients with MDD; in vivo", "value": "1-2 weeks"}, {"measurement": "time to antidepressant effects following a single injection", "setting": "patients with MDD; patients with MDD", "value": 2, "unit": "h"}]}]}
